Results on 66 compounds are retold here after US20130310379A1, “MODULATORS OF METHYL MODIFYING ENZYMES, COMPOSITIONS AND USES THEREOF” (CONSTELLATION PHARMACEUTICALS, priority 2010, published 2013).

Molecules are shown by their SMILES.

Sequence of EZH2 (Q15910 whole entry): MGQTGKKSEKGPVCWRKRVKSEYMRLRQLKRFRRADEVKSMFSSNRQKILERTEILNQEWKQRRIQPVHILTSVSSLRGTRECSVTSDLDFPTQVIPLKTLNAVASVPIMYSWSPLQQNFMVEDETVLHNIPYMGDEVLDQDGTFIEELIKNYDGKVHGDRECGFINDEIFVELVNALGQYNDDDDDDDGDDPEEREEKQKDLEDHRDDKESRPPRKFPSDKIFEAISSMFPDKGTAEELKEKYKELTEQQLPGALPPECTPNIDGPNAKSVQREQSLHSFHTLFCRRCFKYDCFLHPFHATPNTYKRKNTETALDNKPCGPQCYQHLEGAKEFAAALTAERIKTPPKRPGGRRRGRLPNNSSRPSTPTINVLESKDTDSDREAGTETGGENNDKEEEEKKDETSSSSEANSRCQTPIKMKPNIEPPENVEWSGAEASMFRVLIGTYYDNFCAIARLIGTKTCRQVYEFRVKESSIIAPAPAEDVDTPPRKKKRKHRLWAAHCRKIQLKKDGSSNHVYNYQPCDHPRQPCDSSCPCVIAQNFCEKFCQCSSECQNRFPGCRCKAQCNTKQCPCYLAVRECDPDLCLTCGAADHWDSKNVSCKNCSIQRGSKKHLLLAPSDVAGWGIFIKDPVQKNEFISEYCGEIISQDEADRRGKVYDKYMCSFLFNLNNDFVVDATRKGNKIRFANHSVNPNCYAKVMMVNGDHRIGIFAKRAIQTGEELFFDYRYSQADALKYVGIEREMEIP
Sequence of EZH2 (O75530 whole entry partner): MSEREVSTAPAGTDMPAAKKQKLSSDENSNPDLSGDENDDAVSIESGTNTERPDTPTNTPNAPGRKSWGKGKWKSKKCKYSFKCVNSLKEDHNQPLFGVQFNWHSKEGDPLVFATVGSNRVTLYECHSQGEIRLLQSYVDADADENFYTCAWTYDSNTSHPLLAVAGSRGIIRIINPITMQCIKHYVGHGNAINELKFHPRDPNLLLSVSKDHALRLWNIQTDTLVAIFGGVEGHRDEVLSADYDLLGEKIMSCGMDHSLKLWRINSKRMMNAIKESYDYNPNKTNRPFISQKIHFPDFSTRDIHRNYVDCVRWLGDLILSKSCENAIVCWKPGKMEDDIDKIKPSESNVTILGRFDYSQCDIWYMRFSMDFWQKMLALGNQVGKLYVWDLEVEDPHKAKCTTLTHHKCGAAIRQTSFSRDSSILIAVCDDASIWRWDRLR
Sequence of EZH2 (Q15022 whole entry partner): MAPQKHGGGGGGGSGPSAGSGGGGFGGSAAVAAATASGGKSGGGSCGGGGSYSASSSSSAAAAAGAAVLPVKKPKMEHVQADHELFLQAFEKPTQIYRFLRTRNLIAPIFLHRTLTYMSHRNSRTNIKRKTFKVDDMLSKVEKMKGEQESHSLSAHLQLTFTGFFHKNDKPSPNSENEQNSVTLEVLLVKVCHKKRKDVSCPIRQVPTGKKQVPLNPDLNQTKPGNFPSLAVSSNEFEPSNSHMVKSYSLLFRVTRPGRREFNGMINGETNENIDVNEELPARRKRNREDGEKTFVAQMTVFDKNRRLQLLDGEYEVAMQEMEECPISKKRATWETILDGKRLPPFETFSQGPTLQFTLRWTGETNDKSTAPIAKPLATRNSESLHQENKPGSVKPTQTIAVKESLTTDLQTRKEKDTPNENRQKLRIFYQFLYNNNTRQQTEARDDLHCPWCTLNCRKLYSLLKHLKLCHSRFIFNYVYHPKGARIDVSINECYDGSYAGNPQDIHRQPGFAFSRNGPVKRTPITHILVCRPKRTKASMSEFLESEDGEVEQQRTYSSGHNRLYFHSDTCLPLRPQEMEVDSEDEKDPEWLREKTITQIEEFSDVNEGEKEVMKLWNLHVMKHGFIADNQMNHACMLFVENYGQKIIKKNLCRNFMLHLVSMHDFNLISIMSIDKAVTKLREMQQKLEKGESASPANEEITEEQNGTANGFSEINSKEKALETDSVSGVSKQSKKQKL

The target in this test is EZH2 (Homo sapiens, UniProt Q15910). The test is described as follows: EZH2 assay: rPRC2 with biotinylated oligonucleosome substrates and 3H SAM, FlashPlate scintillation counting, IC50. Format: biochemical. The conditions noted are these: rPRC2, biotinylated oligonucleosome substrates, 3H SAM; read-out: EZH2 IC50. The method in brief:
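rPRC2 (2 nM EZH2) pre-incubated 20 min with compound (80 to 0.16 uM, ten 2-fold steps), then 60 min reaction with 0.2 uM 3H SAM, 0.2 uM biotinylated oligonucleosomes, 3.6 uM H3K27me3 peptide in Tris pH 8.5. SAH/EDTA quench; 4-parameter IC50 fit.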
On to `CC1(C)CC(NC(=O)c2ccc(Oc3ncccc3C(N)=O)cc2)CC(C)(C)N1` [Compound I-103, 2-(4-(2,2,6,6-Tetramethylpiperidin-4-ylcarbamoyl)phenoxy)nicotinamide], for which the half-maximal inhibitory concentration (IC50) (in general, the concentration at which inhibition is half-maximal) is above 80 µM. For `CC1(C)CC(NC(=O)c2ccc(Oc3cccc(-c4cnc(N)nc4)c3C#N)c(Cl)c2)CC(C)(C)N1` [Compound I-538], the IC50 was below 5 µM. For `CC1(C)CC(NC(=O)c2ccc(OC3CNC3)c(Cl)c2)CC(C)(C)N1` [Compound I-392] the value was above 80 µM; for `CC1(C)CC(NC(=O)c2ccc(Oc3cccc(-c4ccc[nH]4)c3C#N)c(Cl)c2)CC(C)(C)N1` [Compound I-337], below 5 µM. With `CC1(C)CC(NC(=O)c2ccc(COc3cccc(-c4cncnc4)c3)cc2)CC(C)(C)N1` [Compound I-32] the figure was 20 to 80 µM; with `CC1(C)CC(NC(=O)c2ccc3c(c2)Cc2ccccc2O3)CC(C)(C)N1` [Compound I-412], above 80 µM; with `CC1(C)CC(NC(=O)c2ccc(C(O)c3ccccc3)cc2)CC(C)(C)N1` (stereo not drawn) [Compound I-432], above 80 µM. With `CC1(C)CC(NC(=O)c2ccc(COc3cccc(-c4cnc(N)nc4)c3)cc2)CC(C)(C)N1` [Compound I-3] the figure was below 5 µM; with `CN(C)Cc1cccc(Oc2ccc(C(=O)NC3CC(C)(C)NC(C)(C)C3)cc2)c1` [Compound I-247], 20 to 80 µM; with `CC1(C)CC(NC(=O)c2ccc(Oc3cccnc3C#N)cc2)CC(C)(C)N1` [Compound I-10], 5 to 20 µM.

Regarding `CC1(C)CC(NC(=O)c2ccc(Oc3ccccc3C(C)(C)C)cc2)CC(C)(C)N1` [Compound I-151], the IC50 lay in the range of 5 to 20 µM. With `CC1(C)CC(NC(=O)c2ccc(Oc3ccccc3)c(F)c2)CC(C)(C)N1` [Compound I-148] the figure was 5 to 20 µM; with `CC1(C)CC(NC(=O)c2ccc(Oc3ccccc3C#N)c(Cl)c2)CC(c2ccccc2)N1` (stereo not drawn) [Compound I-409], 20 to 80 µM; with `CC1(C)CC(NC(=O)c2ccc(Oc3cccc(-c4cncs4)c3C#N)c(Cl)c2)CC(C)(C)N1` [Compound I-371], below 5 µM. With `CC1(C)CC(NC(=O)c2ccc(COc3cccc(-c4cc[nH]c(=O)c4)c3)cc2)CC(C)(C)N1` [Compound I-11] the figure was 5 to 20 µM; with `CC1(C)CC(NC(=O)c2ccc(Oc3ccccc3C#N)c(-c3cccnc3)c2)CC(C)(C)N1` [Compound I-211], below 5 µM; with `CC1(C)CC(NC(=O)c2ccc(Oc3ccccc3C(=O)NCc3ccccc3)c(Cl)c2)CC(C)(C)N1` [Compound I-286], 5 to 20 µM.

Regarding `CC(C#N)c1cccc(Oc2ccc(C(=O)NC3CC(C)(C)NC(C)(C)C3)cc2Cl)c1` (stereo not drawn) [Compound I-479], the IC50 lay within 20 to 80 µM. For `Cc1cccc(OCc2ccc(C(=O)NC3CC(C)(C)NC(C)(C)C3)cc2)n1` [Compound I-85, 4-((6-methylpyridin-2-yloxy)methyl)-N-(2,2,6,6-tetramethylpiperidin-4-yl)benzamide] the value was above 80 µM; for `CC1(C)CC(NC(=O)c2ccc(Oc3ccc(O)cc3)cc2)CC(C)(C)N1` [Compound I-25], 20 to 80 µM. With `CC1(C)CC(NC(=O)c2ccc(Oc3ccccc3C#N)c(Cl)c2)CC(C)(C)N1CC(=O)O` [Compound I-424] the figure was above 80 µM; with `CC1(C)CC(NC(=O)c2ccc(COc3cccc4ncccc34)cc2)CC(C)(C)N1` [Compound I-190], 5 to 20 µM. With `CC1(C)CC(NC(=O)N2CCN(Cc3ccccc3C#N)C(=O)C2)CC(C)(C)N1` [Compound I-448] the figure was above 80 µM; with `CC1(C)CC(NC(=O)c2ccc(Oc3cccc4cnc(N)cc34)cc2)CC(C)(C)N1` [Compound I-350], 5 to 20 µM. Regarding `CC1(C)CC(NC(=O)c2ccc(Oc3ccccc3-c3ccc(N)nc3)c(Cl)c2)CC(C)(C)N1` [Compound I-227], the IC50 is below 5 µM. With `Cc1ccccc1Oc1ccc(C(=O)NC2CC(C)(C)NC(C)(C)C2)cc1` [Compound I-48] the figure was 20 to 80 µM; with `CC1(C)CC(NC(=O)c2ccc(Oc3ccccc3C(=O)Nc3ccccc3)c(Cl)c2)CC(C)(C)N1` [Compound I-272], 20 to 80 µM; with `CC1(C)CC(NC(=O)c2ccc(Oc3ccccc3-c3ccsc3)c(Cl)c2)CC(C)(C)N1` [Compound I-252], below 5 µM. With `Cc1ncccc1-c1cccc(Oc2ccc(C(=O)NC3CC(C)(C)NC(C)(C)C3)cc2Cl)c1C#N` [Compound I-352] the figure was below 5 µM; with `CC1(C)CC(NC(=O)c2ccc(Oc3cccc4c[nH]c(=O)cc34)cc2)CC(C)(C)N1` [Compound I-370], 20 to 80 µM; with `N#Cc1ccccc1Oc1ccc(C(=O)NC2CCN(c3cccnc3)CC2)cc1Cl` [Compound I-368], above 80 µM. For `CC1(C)CC(NC(=O)c2ccc(OC3CCNCC3)c(Cl)c2)CC(C)(C)N1` [Compound I-382] the value was above 80 µM; for `Cc1ccc(Oc2ccc(C(=O)NC3CC(C)(C)NC(C)(C)C3)cc2)cc1` [Compound I-92], above 80 µM; for `COc1ncccc1-c1cccc(OCc2ccc(C(=O)NC3CC(C)(C)NC(C)(C)C3)cc2)c1` [Compound I-55], 20 to 80 µM. With `Cc1cncc(-c2cccc(OCc3ccc(C(=O)NC4CC(C)(C)NC(C)(C)C4)cc3)c2)c1` [Compound I-13, 4-((3-(5-methylpyridin-3-yl)phenoxy)methyl)-N-(2,2,6,6-tetramethylpiperidin-4-yl)benzamide], the IC50 is 5 to 20 µM. Turning to `CC1(C)CC(NC(=O)c2ccc(COc3cccc(F)c3)cc2)CC(C)(C)N1` [Compound I-59], the IC50 was 20 to 80 µM. As for `CC(Oc1ccccc1Oc1ccc(C(=O)NC2CC(C)(C)NC(C)(C)C2)cc1)c1ccccc1` (stereo not drawn) [Compound I-208], the IC50 lay within 5 to 20 µM. Turning to `CC1(C)CC(NC(=O)c2ccc(COc3ccccc3C#N)cc2)CC(C)(C)N1` [Compound I-240], the IC50 is above 80 µM. With `CC(O)c1cccc(Oc2ccc(C(=O)NC3CC(C)(C)NC(C)(C)C3)cc2Cl)c1-c1ccncc1` (stereo not drawn) [Compound I-400] the figure was 5 to 20 µM; with `Cc1ncccc1-c1cccc(OCc2ccc(C(=O)NC3CC(C)(C)NC(C)(C)C3)cc2)c1` [Compound I-58], 20 to 80 µM; with `CC1(C)CC(NC(=O)c2ccc(Oc3cccc(CN4CCCCC4)c3)cc2)CC(C)(C)N1` [Compound I-169], 5 to 20 µM. For `CN(C)c1ccc(-c2cccc(Oc3ccc(C(=O)NC4CC(C)(C)NC(C)(C)C4)cc3Cl)c2C#N)cn1` [Compound I-557] the value was below 5 µM.

In the case of `CC1(C)CC(NC(=O)c2ccc(Oc3ccccc3C3CCNCC3)c(Cl)c2)CC(C)(C)N1` [Compound I-230], the IC50 lay in the range of 5 to 20 µM. With `CC1(C)CC(NC(=O)c2ccc(COc3cccc(-c4ccc(N)nc4)c3)cc2)CC(C)(C)N1` [Compound I-1] the figure was below 5 µM. For the compound `CC1(C)CC(NC(=O)c2ccc(Oc3ccccc3C#N)cc2)CC(C)(C)N1` [Compound I-6], the IC50 was below 5 µM. For `COc1ccccc1Oc1ccc(C(=O)NC2CC(C)(C)NC(C)(C)C2)cc1` [Compound I-57] the value was 20 to 80 µM. As for `CC1(C)CC(NC(=O)c2ccc(Oc3cccc(-c4ccnnc4)c3C#N)c(Cl)c2)CC(c2ccccc2)N1` (stereo not drawn) [Compound I-477], the IC50 is below 5 µM. On to `CC1(C)CC(NC(=O)c2ccc(Oc3ccccc3C#N)c(-c3ccsc3)c2)CC(C)(C)N1` [Compound I-212], for which the IC50 is below 5 µM. For `CC1(C)CC(NC(=O)c2ccc(COc3cccc(-c4cccnc4)c3)cc2)CC(C)(C)N1` [Compound I-7] the value was 5 to 20 µM. For `Cc1ccc(CO)cc1Oc1ccc(C(=O)NC2CC(C)(C)NC(C)(C)C2)cc1` [Compound I-43] the value was 20 to 80 µM. For `CC1(C)CC(NC(=O)c2ccc(COc3cccc(-c4ccc(O)cc4)c3)cc2)CC(C)(C)N1` [Compound I-38] the value was 20 to 80 µM; for `CNC(=O)Cn1cc(-c2cccc(Oc3ccc(C(=O)NC4CC(C)(C)NC(C)(C)C4)cc3Cl)c2C#N)cn1` [Compound I-387], below 5 µM. For the compound `CN(C)Cc1ccccc1Oc1ccc(C(=O)NC2CC(C)(C)NC(C)(C)C2)cc1` [Compound I-275], the half-inhibitory concentration (IC50) was above 80 µM. For `CNC(=O)CCc1cccc(Oc2ccc(C(=O)NC3CC(C)(C)NC(C)(C)C3)cc2Cl)c1C#N` [Compound I-551] the value was below 5 µM. For `CC1(C)CC(NC(=O)c2ccc(Oc3cnccn3)cc2)CC(C)(C)N1` [Compound I-78] the value was above 80 µM; for `CC1(C)CC(NC(=O)c2ccccc2Oc2ccccc2)CC(C)(C)N1` [Compound I-95], above 80 µM. For `CNC(=O)CC1(NC(=O)c2ccc(Oc3cccc(-c4ccnnc4)c3C#N)c(Cl)c2)CC(C)(C)NC(C)(C)C1` [Compound I-570] the value was above 80 µM; for `CC1(C)CC(NC(=O)c2ccc(Oc3ccccc3C#N)c(Cl)c2)C(F)C(C)(C)N1` (stereo not drawn) [Compound I-434], 20 to 80 µM. Regarding `CC1(C)CC(NC(=O)c2ccc(Oc3cccc4c(Cl)nccc34)cc2)CC(C)(C)N1` [Compound I-314], the IC50 lay in the range of 5 to 20 µM. With `Cc1cccc(C)c1Oc1ccc(C(=O)NC2CC(C)(C)NC(C)(C)C2)cc1` [Compound I-69] the figure was above 80 µM; with `CC1(C)CC(NC(=O)c2cc(F)c(Oc3ccccc3C#N)c(Br)c2)CC(C)(C)N1` [Compound I-351], below 5 µM. With `CC(O)c1ccccc1Oc1ccc(C(=O)NC2CC(C)(C)NC(C)(C)C2)cc1Cl` (stereo not drawn) [Compound I-455] the figure was 5 to 20 µM.

`CC1(C)CC(NC(=O)c2ccc(COc3cccnc3Cl)cc2)CC(C)(C)N1` [Compound I-77]: the IC50 was above 80 µM. With `Cc1cncc(-c2ccccc2Oc2ccc(C(=O)NC3CC(C)(C)NC(C)(C)C3)cc2Cl)c1` [Compound I-296] the figure was below 5 µM. With `CC1(C)CC(NC(=O)c2ccc(Oc3cccc(CN4CCOCC4)c3)cc2)CC(C)(C)N1` [Compound I-234] the figure was above 80 µM; with `CC1(C)CC(NC(=O)c2ccc(Oc3ccccn3)cc2)CC(C)(C)N1` [Compound I-56], 20 to 80 µM.
